The values below come from ChEMBL document CHEMBL3991601, “The target landscape of clinical kinase drugs” (Science, 2017).

Active and inactive are the calls of the source. Cut-off read from the data, not from the text of the source, for most assays here: actives have a measured Kd and inactives only a lower limit. Where only a bound is given, the exact number is not on record here.

Experiment [1] addresses Receptor-interacting serine/threonine-protein kinase 2 (Homo sapiens, UniProt O43353).
The target in experiment [2] is Tyrosine-protein kinase BTK (Homo sapiens, UniProt Q06187).
Tyrosine-protein kinase BTK, sequence (Q06187 whole entry): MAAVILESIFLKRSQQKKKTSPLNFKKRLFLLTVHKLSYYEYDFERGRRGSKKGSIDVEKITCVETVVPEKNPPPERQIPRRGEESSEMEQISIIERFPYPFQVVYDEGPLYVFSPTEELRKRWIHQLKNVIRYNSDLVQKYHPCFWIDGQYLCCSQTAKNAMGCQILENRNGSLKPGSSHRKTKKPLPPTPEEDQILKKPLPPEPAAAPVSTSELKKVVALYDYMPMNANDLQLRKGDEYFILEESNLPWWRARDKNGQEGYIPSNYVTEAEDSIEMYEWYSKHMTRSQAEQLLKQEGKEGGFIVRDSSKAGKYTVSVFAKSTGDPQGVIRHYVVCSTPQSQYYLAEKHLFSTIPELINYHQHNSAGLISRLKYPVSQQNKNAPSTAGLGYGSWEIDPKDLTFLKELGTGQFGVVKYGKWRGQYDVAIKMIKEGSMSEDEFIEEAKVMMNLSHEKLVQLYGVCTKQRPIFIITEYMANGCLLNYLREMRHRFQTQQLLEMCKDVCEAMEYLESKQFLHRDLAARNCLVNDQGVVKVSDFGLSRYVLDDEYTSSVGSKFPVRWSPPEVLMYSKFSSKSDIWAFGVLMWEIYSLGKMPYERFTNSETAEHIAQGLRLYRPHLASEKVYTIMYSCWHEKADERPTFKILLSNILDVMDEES
In experiment [3] the target is Myosin light chain kinase, smooth muscle (Homo sapiens, UniProt Q15746).
Myosin light chain kinase, smooth muscle, sequence (Q15746 whole entry): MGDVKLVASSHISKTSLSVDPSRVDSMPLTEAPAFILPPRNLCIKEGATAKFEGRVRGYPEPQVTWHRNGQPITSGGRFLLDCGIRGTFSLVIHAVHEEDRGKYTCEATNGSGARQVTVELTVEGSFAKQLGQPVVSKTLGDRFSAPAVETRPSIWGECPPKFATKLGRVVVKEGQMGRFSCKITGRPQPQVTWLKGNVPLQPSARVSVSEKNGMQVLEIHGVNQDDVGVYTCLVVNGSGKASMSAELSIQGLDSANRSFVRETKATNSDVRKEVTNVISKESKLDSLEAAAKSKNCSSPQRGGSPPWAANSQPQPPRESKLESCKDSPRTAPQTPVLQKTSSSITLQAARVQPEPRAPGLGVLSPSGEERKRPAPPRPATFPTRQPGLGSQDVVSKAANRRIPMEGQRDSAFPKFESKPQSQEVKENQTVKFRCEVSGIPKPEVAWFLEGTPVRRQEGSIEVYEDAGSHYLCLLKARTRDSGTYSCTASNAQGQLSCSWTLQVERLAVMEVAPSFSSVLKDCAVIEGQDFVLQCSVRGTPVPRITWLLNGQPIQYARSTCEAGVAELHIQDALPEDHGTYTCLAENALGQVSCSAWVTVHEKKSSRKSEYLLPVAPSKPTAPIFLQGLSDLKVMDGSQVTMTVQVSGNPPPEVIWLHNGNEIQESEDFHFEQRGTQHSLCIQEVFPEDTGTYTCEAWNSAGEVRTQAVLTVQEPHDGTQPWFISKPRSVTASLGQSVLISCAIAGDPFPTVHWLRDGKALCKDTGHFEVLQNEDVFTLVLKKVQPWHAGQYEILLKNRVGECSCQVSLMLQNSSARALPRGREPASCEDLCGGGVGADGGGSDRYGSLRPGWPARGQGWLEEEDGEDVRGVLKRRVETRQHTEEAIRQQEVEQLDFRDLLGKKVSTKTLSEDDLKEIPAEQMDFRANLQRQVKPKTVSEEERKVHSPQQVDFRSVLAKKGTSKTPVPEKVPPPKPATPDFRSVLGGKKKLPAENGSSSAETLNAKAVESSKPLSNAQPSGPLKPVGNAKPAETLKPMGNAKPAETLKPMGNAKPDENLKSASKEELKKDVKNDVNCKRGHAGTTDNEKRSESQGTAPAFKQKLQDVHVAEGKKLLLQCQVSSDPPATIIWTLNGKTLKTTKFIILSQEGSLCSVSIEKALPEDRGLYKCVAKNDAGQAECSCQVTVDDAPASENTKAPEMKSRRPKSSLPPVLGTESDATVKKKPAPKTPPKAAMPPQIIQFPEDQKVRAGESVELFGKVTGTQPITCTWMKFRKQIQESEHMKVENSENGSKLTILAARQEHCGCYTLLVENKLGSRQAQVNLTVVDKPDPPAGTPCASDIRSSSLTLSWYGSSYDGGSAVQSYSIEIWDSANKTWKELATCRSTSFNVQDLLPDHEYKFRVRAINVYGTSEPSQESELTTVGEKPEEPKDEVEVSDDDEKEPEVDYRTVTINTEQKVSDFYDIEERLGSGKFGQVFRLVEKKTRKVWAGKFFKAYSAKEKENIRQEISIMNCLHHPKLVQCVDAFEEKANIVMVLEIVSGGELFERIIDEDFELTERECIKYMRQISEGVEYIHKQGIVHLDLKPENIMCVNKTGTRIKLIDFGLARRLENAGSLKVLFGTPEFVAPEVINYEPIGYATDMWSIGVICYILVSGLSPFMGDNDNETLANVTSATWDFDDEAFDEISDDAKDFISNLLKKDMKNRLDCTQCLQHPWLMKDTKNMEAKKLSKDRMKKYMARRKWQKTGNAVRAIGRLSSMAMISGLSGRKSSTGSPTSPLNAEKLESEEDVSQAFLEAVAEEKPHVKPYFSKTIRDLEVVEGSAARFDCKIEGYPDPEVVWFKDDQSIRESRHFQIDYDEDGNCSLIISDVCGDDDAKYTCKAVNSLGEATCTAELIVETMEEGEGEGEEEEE
Experiment [4] addresses AP2-associated protein kinase 1 (Homo sapiens, UniProt Q2M2I8).
Experiment [5] concerns the target Casein kinase I isoform alpha (Homo sapiens, UniProt P48729).
In experiment [6] the target is Elongation factor Tu, mitochondrial (Homo sapiens, UniProt P49411).
In a further experiment the target is TGF-beta receptor type-2 (Homo sapiens, UniProt P37173).
TGF-beta receptor type-2, sequence (P37173 whole entry): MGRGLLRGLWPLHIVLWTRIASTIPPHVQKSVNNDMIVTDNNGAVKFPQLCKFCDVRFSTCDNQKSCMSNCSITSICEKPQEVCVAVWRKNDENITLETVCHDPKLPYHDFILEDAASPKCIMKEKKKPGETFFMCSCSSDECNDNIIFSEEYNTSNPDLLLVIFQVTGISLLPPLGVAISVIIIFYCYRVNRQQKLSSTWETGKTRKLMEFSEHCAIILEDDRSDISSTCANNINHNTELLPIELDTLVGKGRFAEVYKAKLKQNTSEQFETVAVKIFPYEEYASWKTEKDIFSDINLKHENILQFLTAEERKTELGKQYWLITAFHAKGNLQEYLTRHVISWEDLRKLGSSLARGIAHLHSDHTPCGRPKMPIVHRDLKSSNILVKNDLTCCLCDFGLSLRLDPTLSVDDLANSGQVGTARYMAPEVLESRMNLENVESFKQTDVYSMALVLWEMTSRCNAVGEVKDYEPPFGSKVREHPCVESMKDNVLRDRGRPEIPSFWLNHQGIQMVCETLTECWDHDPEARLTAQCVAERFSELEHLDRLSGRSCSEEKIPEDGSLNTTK
Experiment [7] concerns the target T1, Serine/threonine-protein kinase Nek2 (Homo sapiens, UniProt P51955).
T1 sequence (P51955 whole entry): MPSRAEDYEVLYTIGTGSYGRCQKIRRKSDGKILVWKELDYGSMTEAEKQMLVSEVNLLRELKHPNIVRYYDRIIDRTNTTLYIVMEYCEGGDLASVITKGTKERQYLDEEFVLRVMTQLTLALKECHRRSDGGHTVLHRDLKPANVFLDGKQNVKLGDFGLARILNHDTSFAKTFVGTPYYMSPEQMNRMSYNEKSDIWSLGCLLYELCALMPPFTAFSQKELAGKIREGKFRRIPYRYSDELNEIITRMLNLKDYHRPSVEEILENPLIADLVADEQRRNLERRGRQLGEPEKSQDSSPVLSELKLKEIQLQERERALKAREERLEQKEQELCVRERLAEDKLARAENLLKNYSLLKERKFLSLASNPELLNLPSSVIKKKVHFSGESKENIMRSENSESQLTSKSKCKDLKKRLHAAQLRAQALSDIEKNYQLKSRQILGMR

The target of experiment [8] is T2, Cytochrome c1, heme protein, mitochondrial (Homo sapiens, UniProt P08574).
T2 sequence (P08574 whole entry): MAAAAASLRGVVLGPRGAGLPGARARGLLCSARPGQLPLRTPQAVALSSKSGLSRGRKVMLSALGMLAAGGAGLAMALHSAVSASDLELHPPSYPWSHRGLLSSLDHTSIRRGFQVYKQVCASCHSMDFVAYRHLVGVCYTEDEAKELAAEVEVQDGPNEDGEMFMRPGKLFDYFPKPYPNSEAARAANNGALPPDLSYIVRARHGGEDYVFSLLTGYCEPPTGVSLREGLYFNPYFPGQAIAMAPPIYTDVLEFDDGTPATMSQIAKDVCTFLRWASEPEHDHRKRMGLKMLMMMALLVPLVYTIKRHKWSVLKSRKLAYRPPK

Experiment [9] has as its target T3, Serine/threonine-protein kinase ICK (Homo sapiens, UniProt Q9UPZ9).
T3 sequence (Q9UPZ9 whole entry): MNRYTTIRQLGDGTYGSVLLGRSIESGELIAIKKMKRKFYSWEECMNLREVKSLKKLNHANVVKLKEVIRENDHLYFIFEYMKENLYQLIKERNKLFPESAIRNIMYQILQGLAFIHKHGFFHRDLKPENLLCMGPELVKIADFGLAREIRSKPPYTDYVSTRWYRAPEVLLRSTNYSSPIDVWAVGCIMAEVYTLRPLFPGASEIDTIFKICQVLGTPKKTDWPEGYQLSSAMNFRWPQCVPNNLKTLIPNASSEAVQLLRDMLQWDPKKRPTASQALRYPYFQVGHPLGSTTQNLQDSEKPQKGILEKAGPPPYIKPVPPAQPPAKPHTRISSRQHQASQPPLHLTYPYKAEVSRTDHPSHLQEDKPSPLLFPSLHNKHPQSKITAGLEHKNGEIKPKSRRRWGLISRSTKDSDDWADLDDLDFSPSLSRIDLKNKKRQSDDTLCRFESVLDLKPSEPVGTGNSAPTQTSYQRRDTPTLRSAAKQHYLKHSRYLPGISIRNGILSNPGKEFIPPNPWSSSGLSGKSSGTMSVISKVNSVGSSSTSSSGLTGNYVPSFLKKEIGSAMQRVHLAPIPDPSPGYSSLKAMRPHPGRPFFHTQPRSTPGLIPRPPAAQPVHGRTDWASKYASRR
Note: in the data inactive means no Kd found up to 30 µM.

AP2-associated protein kinase 1, sequence (Q2M2I8 whole entry, canonical isoform): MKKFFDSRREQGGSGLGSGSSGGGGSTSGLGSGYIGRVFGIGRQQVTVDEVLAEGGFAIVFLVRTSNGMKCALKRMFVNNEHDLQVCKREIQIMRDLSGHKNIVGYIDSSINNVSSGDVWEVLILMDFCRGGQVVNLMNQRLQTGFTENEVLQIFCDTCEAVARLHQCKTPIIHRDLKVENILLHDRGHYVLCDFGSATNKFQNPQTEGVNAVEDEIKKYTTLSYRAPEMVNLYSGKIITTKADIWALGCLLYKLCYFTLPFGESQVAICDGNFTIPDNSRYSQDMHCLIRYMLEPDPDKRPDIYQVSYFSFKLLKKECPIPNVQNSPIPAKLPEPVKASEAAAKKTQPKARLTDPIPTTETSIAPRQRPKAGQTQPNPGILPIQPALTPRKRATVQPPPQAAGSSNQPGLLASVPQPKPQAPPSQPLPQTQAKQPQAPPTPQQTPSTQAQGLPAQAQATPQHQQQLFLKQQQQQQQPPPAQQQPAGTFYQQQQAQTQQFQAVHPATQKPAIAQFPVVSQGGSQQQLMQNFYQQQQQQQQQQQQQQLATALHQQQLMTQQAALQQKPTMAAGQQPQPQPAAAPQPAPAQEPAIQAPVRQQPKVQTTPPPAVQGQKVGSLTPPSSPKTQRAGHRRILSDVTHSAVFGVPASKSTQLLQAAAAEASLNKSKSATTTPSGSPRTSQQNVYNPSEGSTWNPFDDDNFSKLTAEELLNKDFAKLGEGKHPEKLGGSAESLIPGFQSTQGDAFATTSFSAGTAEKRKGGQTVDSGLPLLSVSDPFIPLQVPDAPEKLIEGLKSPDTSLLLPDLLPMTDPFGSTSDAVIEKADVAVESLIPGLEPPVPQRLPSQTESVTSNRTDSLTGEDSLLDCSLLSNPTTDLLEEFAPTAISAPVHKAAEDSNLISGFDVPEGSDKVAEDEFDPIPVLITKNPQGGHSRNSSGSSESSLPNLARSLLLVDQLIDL
Receptor-interacting serine/threonine-protein kinase 2, sequence (O43353 whole entry): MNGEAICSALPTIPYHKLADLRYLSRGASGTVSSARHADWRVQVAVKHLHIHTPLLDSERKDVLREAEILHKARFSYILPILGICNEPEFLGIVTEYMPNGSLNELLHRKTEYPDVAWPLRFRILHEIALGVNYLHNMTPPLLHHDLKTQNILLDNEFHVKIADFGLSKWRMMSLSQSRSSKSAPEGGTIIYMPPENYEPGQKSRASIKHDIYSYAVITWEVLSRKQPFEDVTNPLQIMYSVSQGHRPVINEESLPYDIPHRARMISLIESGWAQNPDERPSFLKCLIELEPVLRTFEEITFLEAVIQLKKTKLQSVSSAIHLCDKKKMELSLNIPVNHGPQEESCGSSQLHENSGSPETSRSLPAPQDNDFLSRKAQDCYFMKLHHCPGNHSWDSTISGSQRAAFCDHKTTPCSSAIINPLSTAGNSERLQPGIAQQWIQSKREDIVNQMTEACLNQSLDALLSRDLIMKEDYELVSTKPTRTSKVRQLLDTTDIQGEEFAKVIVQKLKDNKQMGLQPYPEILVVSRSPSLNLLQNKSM
Casein kinase I isoform alpha, sequence (P48729 whole entry, canonical isoform): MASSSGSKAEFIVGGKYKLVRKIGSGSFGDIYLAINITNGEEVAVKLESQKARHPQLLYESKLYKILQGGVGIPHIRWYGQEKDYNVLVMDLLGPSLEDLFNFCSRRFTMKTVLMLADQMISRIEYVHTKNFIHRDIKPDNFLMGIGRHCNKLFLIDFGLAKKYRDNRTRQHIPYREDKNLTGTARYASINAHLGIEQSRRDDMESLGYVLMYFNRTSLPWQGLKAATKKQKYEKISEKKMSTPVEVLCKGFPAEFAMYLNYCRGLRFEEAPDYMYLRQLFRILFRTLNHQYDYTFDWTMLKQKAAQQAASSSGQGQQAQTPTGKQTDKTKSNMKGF

For `C[C@@H](Oc1cc(C(=O)Nc2ccc(C(=O)N3CCN(C)CC3)cc2)nnc1N)c1c(Cl)ccc(F)c1Cl`, the Kd in [1] was > 30 µM (inactive); in experiment [2], > 30 µM (inactive); in experiment [3] it was > 30 µM (inactive); in [4] it was 22.2 µM (active); in experiment [5], > 30 µM (inactive); in experiment [6] it was > 30 µM (inactive). Also, the Kd (at TGF-beta receptor type-2; in experiment [7]) was > 30 µM (inactive) in each case.
For `C[C@H]1CNCCCN1S(=O)(=O)c1cccc2cncc(F)c12`, the Kd in experiment [8], in [1], in experiment [2], in [3], in experiment [4] and in experiment [5] was > 30 µM (inactive) each time. The Kd in experiment [6], in [9] and in experiment [7] was > 30 µM (inactive) in each case.
Turning to `CCNC(=O)C#Cc1ccc2c(c1)NC(=O)/C2=C(\Nc1ccc(CN(C)C)cc1)c1ccccc1`, the Kd was > 30 µM (inactive) in experiment [8]; > 30 µM (inactive) in experiment [1]; 0.588 µM (active) in experiment [2]; > 30 µM (inactive) in experiment [3]; > 30 µM (inactive) in experiment [4]; > 30 µM (inactive) in experiment [5]. Further, the Kd (in experiment [6]; at TGF-beta receptor type-2; in experiment [7]) was > 30 µM (inactive) throughout.
Consider `Cc1nc(NC(=O)N2CCC[C@H]2C(N)=O)sc1-c1ccnc(C(C)(C)C(F)(F)F)c1` [ALPELISIB], for which the Kd in experiment [8], in [1], in [2], in experiment [3], in experiment [4] and in [5] was > 30 µM (inactive) in each case. The Kd in experiment [6], in [9] and in experiment [7] was > 30 µM (inactive) throughout.
Turning to `O=C(Nc1c[nH]nc1-c1nc2cc(CN3CCOCC3)ccc2[nH]1)NC1CC1` [AT-9283], the Kd is > 30 µM (inactive) in experiment [8]; > 30 µM (inactive) in [1]; 0.537 µM (active) in [2]; > 30 µM (inactive) in experiment [3]; 0.017 µM (active) in experiment [4]; > 30 µM (inactive) in experiment [5]. Moreover, the Kd in experiment [6], in experiment [9] and in experiment [7] was > 30 µM (inactive) throughout.
In the case of `Cc1nc2cc(-n3ncc(C(=O)c4cc5ccccc5[nH]4)c3N)ccc2[nH]1` [FGFR INHIBITOR DEBIO 1347], the Kd in [8], in [1], in experiment [2], in experiment [3], in experiment [4] and in experiment [5] was > 30 µM (inactive) in each case. The Kd (in experiment [6]; on TGF-beta receptor type-2; in experiment [7]) was > 30 µM (inactive) each time.
With `CN(C[C@@H]1COCCO1)S(=O)(=O)Nc1ccc2ccc3ncc(-c4cnn(C)c4)cc3c(=O)c2c1` [MK-2461], the Kd in experiment [8] is > 30 µM (inactive); in experiment [1] it was > 30 µM (inactive); in [2], > 30 µM (inactive); in experiment [3] it was > 30 µM (inactive); in [4], 3.65 µM (active); in [5], > 30 µM (inactive). Besides, the Kd (in [6]; on TGF-beta receptor type-2; in experiment [7]) was > 30 µM (inactive) in each case.
For `CCCCCCCCCCCCCCCCCCOP(=O)([O-])OC1CC[N+](C)(C)CC1` [PERIFOSINE], the Kd in [8], in experiment [1], in [2], in [3], in experiment [4] and in experiment [5] was > 30 µM (inactive) in each case. The Kd in experiment [6], in experiment [9] and in experiment [7] was > 30 µM (inactive) each time.

By Kd is commonly meant the concentration at which binding is half-saturated.
